Measured values from US10968176B2, “Pyrrolidone derivatives, oligomers and polymers” (NanoSynthons LLC, priority 2014, dated 2021).
Where two headings read alike, the source gives them in different places.

Test: Fluorescence excitation/emission maxima and relative response per gram (luminescence spectrometer)
Format: physicochemical
Protocol: The appropriate alkyl or aryl amine (0.05 moles) was weighed into a 100 mL round-bottom flask equipped with a magnetic stirrer and containing 15 mL of dry methanol. While stirring, the appropriate dialkyl/diaryl itaconate (0.05 moles/primary amine moiety) dissolved in 15 mL of dry methanol was added dropwise over a period of 10 min. In some cases, a moderate exotherm was noted. The reaction was allowed to stir at RT for 1 h followed by refluxing for 8-10 h. The final product was obtained by removal of the solvent with a Buchi roto-evaporator to give a solid, liquid or syrup with yields ranging from 75-98%. See Table 2 in the Examples and FIGS. 3A-3B for their structures. These final products were characterized by FTIR, ^1H—, ^13C-NMR. Their UV-vis/fluorescence properties were evaluated with a fluorospectrometer (Spectramax from Molecular Devices) yielding data as described in Table 2 in the Examples.
Itaconic acid (Sigma-Aldrich) (0.05 moles/primary amine moiety) was weighed into a 100 mL round-bottom flask equipped with a magnetic stirrer. While stirring, the appropriate alkyl or aryl amine (0.05 moles) was added dropwise over a period of 10 min. […] The flask and reaction mixture was surmounted by a reflux condenser and immersed in an oil bath and heated at 125° C. for 2-5 h. The formation of water condensate from the reaction can be noticed in the condenser. A 25 mL portion of dry methanol is then added and the reaction mixture is refluxed for 1 h. Removal of solvent on a Buchi roto-evaporator produces the desired pyrrolidone product as an oil, syrup or solid in yields ranging from 59-95%. These final products were characterized by using a Thomas-Hoover capillary melting point apparatus, FTIR and ^1H—, ^13C-NMR. Their UV-vis/fluorescence properties were evaluated with a fluorescence spectrometer (Spectramax from Molecular Devices) yielding data as described in Table 2.
Fluorescence data was acquired with a Perkin-Elmer LS50B Luminescence spectrometer. Constant slit widths (Both excitation and emission—3 nm) were used and the concentrations were adjusted to give on scale emission responses. Emission responses were divided by concentration to give response per gram and multiplied by a scaling factor chosen to set the relative response of the standard, fluorescein-Na, to 1,000,000.

[1] = scaled so that fluorescein-Na = 1,000,000
[2] = peak 1, fluorescein-Na = 1,000,000
[3] = peak 2, fluorescein-Na = 1,000,000

Row | SMILES | Emission Max [nm] | Excitation Max [nm] | Relative Response/g [1] | Emission Max (peak 1) [nm] | Excitation Max (peak 1) [nm] | Relative Response/g [2] | Emission Max (peak 2) [nm] | Excitation Max (peak 2) [nm] | Relative Response/g [3]
1 | COC(=O)C1CC(=O)N(CCNC(=O)C2CC(=O)N(CCNC(=O)C3CC(=O)N(CCSSCCN4CC(C(=O)NCCN5CC(C(=O)NCCN6CC(C(=O)OC)CC6=O)CC5=O)CC4=O)C3)C2)C1 (stereo not drawn) [Compound 35] | 301 | 277 | 5.8 | – | – | – | – | – | –
2 | COC(=O)C1CC(=O)N(CCNC(=O)C2CC(=O)N(CCNC(=O)C3CC(=O)N(CCNC(=O)C4CC(=O)N(CCSSCCN5CC(C(=O)NCCN6CC(C(=O)NCCN7CC(C(=O)NCCN8CC(C(=O)OC)CC8=O)CC7=O)CC6=O)CC5=O)C4)C3)C2)C1 (stereo not drawn) [Compound 37] | – | – | – | 302 | 268 | 7.0 | 565 | 260 | 6.5
3 | NCCNC(=O)C1CC(=O)N(CCNC(=O)C2CC(=O)N(CCN3CC(C(=O)NCCN4CC(C(=O)NCCN)CC4=O)CC3=O)C2)C1 (stereo not drawn) [Compound 41] | – | – | – | 390 | 340 | 62.7 | 455 | 285 | 18.7
4 | COC(=O)C1CC(=O)N(CCNC(=O)C2CC(=O)N(CCNC(=O)C3CC(=O)N(CCN4CC(C(=O)NCCN5CC(C(=O)NCCN6CC(C(=O)OC)CC6=O)CC5=O)CC4=O)C3)C2)C1 (stereo not drawn) [Compound 42] | 405 | 335 | 30.7 | – | – | – | – | – | –
5 | NCCNC(=O)C1CC(=O)N(CCNC(=O)C2CC(=O)N(CCNC(=O)C3CC(=O)N(CCN4CC(C(=O)NCCN5CC(C(=O)NCCN6CC(C(=O)NCCN)CC6=O)CC5=O)CC4=O)C3)C2)C1 (stereo not drawn) [Compound 43] | 440 | 355 | 22.8 | – | – | – | – | – | –
6 | COC(=O)C1CC(=O)N(CCNC(=O)C2CC(=O)N(CCNC(=O)C3CC(=O)N(CCNC(=O)C4CC(=O)N(CCN5CC(C(=O)NCCN6CC(C(=O)NCCN7CC(C(=O)NCCN8CC(C(=O)OC)CC8=O)CC7=O)CC6=O)CC5=O)C4)C3)C2)C1 (stereo not drawn) [Compound 44] | 450 | 350 | 14.5 | – | – | – | – | – | –
7 | O=C([O-])c1ccccc1-c1c2ccc(=O)cc-2oc2cc([O-])ccc12.[Na+].[Na+] [Fluorescein-Na, reference compound] | 510 | 470 | 1,000,000.0 | – | – | – | – | – | –

Now from value to compound:

Row | Emission Max [nm] | Excitation Max [nm] | Relative Response/g [1] | Emission Max (peak 1) [nm] | Excitation Max (peak 1) [nm] | Relative Response/g [2] | Emission Max (peak 2) [nm] | Excitation Max (peak 2) [nm] | Relative Response/g [3] | SMILES
8 | 400 | 340 | 50.1 | – | – | – | – | – | – | c1ccc(C2=NCCN2)cc1 [2-Phenyl-2-imidazoline, reference compound]
9 | 385 | 245 | 11.8 | – | – | – | – | – | – | O=C1CCC(C(=O)O)N1 (stereo not drawn) [2-Pyrrolidone-5-carboxylic acid, reference compound]
10 | 350 | 300 | 18.7 | – | – | – | – | – | – | COC(=O)C1CC(=O)N(CCSSCCN2CC(C(=O)OC)CC2=O)C1 (stereo not drawn) [Compound 31]
11 | 380 | 320 | 391.7 | – | – | – | – | – | – | COC(=O)C1CC(=O)N(CCNC(=O)C2CC(=O)N(CCSSCCN3CC(C(=O)NCCN4CC(C(=O)OC)CC4=O)CC3=O)C2)C1 (stereo not drawn) [Compound 33]
12 | 410 | 335 | 2.7 | – | – | – | – | – | – | COC(=O)C1CC(=O)N(CCN2CC(C(=O)OC)CC2=O)C1 (stereo not drawn) [Compound 38]
13 | – | – | – | 415 | 355 | 37.8 | 420 | 245 | 11.1 | NCCNC(=O)C1CC(=O)N(CCN2CC(C(=O)NCCN)CC2=O)C1 (stereo not drawn) [Compound 39]
14 | 390 | 305 | 66.4 | – | – | – | – | – | – | COC(=O)C1CC(=O)N(CCNC(=O)C2CC(=O)N(CCN3CC(C(=O)NCCN4CC(C(=O)OC)CC4=O)CC3=O)C2)C1 (stereo not drawn) [Compound 40]
